Measurements published in patent US9295255B2, “Use of dithiine derivatives in crop protection and the protection of materials” (Bayer Intellectual Property GmbH, priority 2010, dated 2016).

What was measured:
Phytophthora infestans = format: in vivo; settings: young tomato plants sprayed, 1500 ppm, protective; evaluation 7 days following inoculation; 0% = control, 100% = no infestation
Alternaria solani = experiment: Alternaria test (tomato)/protective; format: in vivo; settings: young tomato plants sprayed, 1500 ppm, protective; evaluation 7 days following inoculation; 0% = control, 100% = no infestation
Plasmopara viticola = experiment: Plasmopara test (grapevine)/protective; format: in vivo; settings: young grapevine plants sprayed, 250 ppm, protective; evaluation 6 days following inoculation; 0% = control, 100% = no infestation
Source text: (§1) An appropriate preparation of active compound is produced by mixing 1 part by weight of active compound with the stated amounts of solvent and emulsifier and diluting the concentrate with water to the desired concentration. To test for protective activity, young plants are sprayed with the preparation of active compound at the stated application rate. After the spray coating has dried on, the plants are inoculated with an aqueous spore suspension of Plasmopara viticola and then spend 1 day in an incubation cabin at approximately 20° C. and 100% relative humidity. Subsequently the plants are placed for 4 days in a greenhouse at approximately 21° C. and approximately 90% humidity. The plants are then moistened and placed in an incubation cabin for 1 day. After 6 days following inoculation, evaluation takes place. Here, 0% denotes an efficacy which corresponds to that of the control, whereas an efficacy of 100% means that no infestation is observed.

Venturia inaequalis = experiment: Venturia test (apple)/protective; format: in vivo; settings: young apple plants sprayed, 250 ppm, protective; evaluation 10 days following inoculation; 0% = control, 100% = no infestation
Source text: as §1, with “conidia” for “spore”, “the causative organism of apple scab, Venturia inaequalis,” for “Plasmopara viticola”, “placed” for “placed for 4 days”, “humidity.” for “humidity. The plants are then moistened and placed in an incubation cabin for 1 day.”, “10 clays” for “6 days”

[1] = log P determination by HPLC on reversed-phase column (EEC Directive 79/831 Annex V.A8); format: physicochemical; settings: reversed-phase C18 HPLC column, reversed-phase C 18, 43° C., acidic range pH 2.7, 0.1% aqueous formic acid/acetonitrile
Description: The log P values reported in the preparation examples and tables above are determined in accordance with EEC Directive 79/831 Annex V.A8 by means of HPLC (High Performance Liquid Chromatography) on a reversed-phase column (C 18). Temperature: 43° C.
The determination with the LC-MS in the acidic range takes place at a pH of 2.7 using 0.1% aqueous formic acid and acetonitrile (containing 0.1% formic acid) as eluents: linear gradient from 10% acetonitrile to 95% acetonitrile.
Calibration takes place using unbranched alkan-2-ones (having 3 to 16 carbon atoms) of which the log P values are known (log P values determined on the basis of the retention times, by linear interpolation between two successive alkanones).

Botrytis cinerea = experiment: Botrytis test (bean)/protective; format: in vivo; settings: young bean plants sprayed, 500 ppm, protective; size of infestation spots 2 days following inoculation; 0% = control, 100% = no infestation
Source text: An appropriate preparation of active compound is produced by mixing 1 part by weight of active compound with the stated amounts of solvent and emulsifier and diluting the concentrate with water to the desired concentration. To test for protective activity, young plants are sprayed with the preparation of active compound at the stated application rate. After the spray coating has dried on, 2 small pieces of agar on which Botrytis cinerea is growing are placed on each leaf. The inoculated plants are placed in a darkened chamber at approximately 20° C. and 100% relative humidity. After 2 clays following inoculation, the size of the infestation spots on the leaves is evaluated. Here, 0% denotes an efficacy which corresponds to that of the control, whereas an efficacy of 100% means that no infestation is observed.

## CC(C)(C)c1cc(=O)c2sc(C#N)c(C#N)sc=2c1=O [Compound 45, 6-tert-butyl-5,8-dioxo-5,8-dihydro-1,4-benzodithiine-2,3-dicarbonitrile]
Phytophthora infestans
  Efficacy in %: 78%

## Cc1c(C)c(=O)c2sc(C#N)c(C#N)sc=2c1=O [Compound 43, 6,7-dimethyl-5,8-dioxo-5,8-dihydro-1,4-benzodithiine-2,3-dicarbonitrile]
Alternaria solani
  Efficacy in %: 100%

## COc1c(Cl)c(=O)c2sc(C#N)c(C#N)sc=2c1=O [Compound 44, 6-chloro-7-methoxy-5,8-dioxo-5,8-dihydro-1,4-benzodithiine-2,3-dicarbonitrile]
Alternaria solani
  Efficacy in %: 100%

## COc1c(O)c2c(c(O)c1Cl)SC(C#N)=C(C#N)S2 [Compound 48, 6-chloro-5,8-dihydroxy-7-methoxy-1,4-benzodithiine-2,3-dicarbonitrile]
Phytophthora infestans
  Efficacy in %: 94%
Plasmopara viticola
  Efficacy in %: 90%
Venturia inaequalis
  Efficacy in %: 100%
[1]
  chromatographic logP: 2.19
Botrytis cinerea
  Efficacy in %: 97%
Alternaria solani
  Efficacy in %: 100%

## Cc1c(C)c(O)c2c(c1O)SC(C#N)=C(C#N)S2 [Compound 47, 5,8-dihydroxy-6,7-dimethyl-1,4-benzodithiine-2,3-dicarbonitrile]
Phytophthora infestans
  Efficacy in %: 89%
Plasmopara viticola
  Efficacy in %: 92%
Venturia inaequalis
  Efficacy in %: 100%
[1]
  chromatographic logP: 2.26
Botrytis cinerea
  Efficacy in %: 100%
Alternaria solani
  Efficacy in %: 100%

## CC(C)(C)c1cc(O)c2c(c1O)SC(C#N)=C(C#N)S2 [Compound 49, 6-tert-butyl-5,8-dihydroxy-1,4-benzodithiine-2,3-dicarbonitrile]
Phytophthora infestans
  Efficacy in %: 94%
Plasmopara viticola
  Efficacy in %: 92%
Venturia inaequalis
  Efficacy in %: 100%
[1]
  chromatographic logP: 2.95
Botrytis cinerea
  Efficacy in %: 96%
Alternaria solani
  Efficacy in %: 100%
